In patent US8557823B2, “Family of PFKFB3 inhibitors with anti-neoplastic activities” (Advanced Cancer Therapeutics, LLC, priority 2007, dated 2013):

Assays:
[1] = system: MDA-MB231 breast adenocarcinoma cells; assay: In vitro growth inhibition, MDA-MB231; format: cell-based; settings: Homo sapiens, MDA-MB-231
Procedure: (§1) The K562, HL-60, MDA-MB231, and melanoma (CRL-11174) human cancer cell lines were purchased from ATCC (American Tissue Type Culture Collection, Manassas, Va., United States of America). HeLa, A549, Lewis Lung Carcinoma, MDA-MB231, and melanoma cells were grown in Dulbecco's Modified Eagle Medium (DMEM) (Hyclone, Logan, Utah, United States of America) supplemented with 10% fetal bovine serum (Hyclone, Logan, Utah, United States of America) and 50 μg/mL gentamicin sulfate (Invitrogen, Carlsbad, Calif., United States of America). The HL-60, K562, and Jurkat cell lines were grown in RPMI-1640 medium (Hyclone, Logan, Utah, United States of America) supplemented with 10% fetal bovine serum and 50 μg/mL gentamicin sulfate. […]
(§2) Cells were collected 48 hours post-treatment, and cell number and viability were determined by trypan blue exclusion. […]

[2] = system: A549 lung carcinoma cells; assay: In vitro growth inhibition, A549; format: cell-based; settings: human A549
Procedure: as §1, §2

[3] = system: Jurkat cells expressing unaltered PFKFB3 levels; assay: Growth inhibition of control Jurkat cells (empty vector, doxycycline); format: cell-based; settings: Homo sapiens, 48 hours
Procedure: FIG. 6D is a bar graph showing the anti-proliferative effects of 3PO in Jurkat cells engineered to over-express PFKFB3 through doxycylin treatment utilizing the Tet-on system (+PFKFB3, striped bars). Twenty-four hours prior to 3PO treatment, 1 μg/mL of doxycyclin is incubated with Jurkat cells containing a PFKFB3-expressing vector in order to induce PFKFB3 protein levels. Control cells (−PFKFB3, solid bars) containing an empty vector were similarly treated with doxycyclin and served as background PFKFB3 expression. Both cell types were subsequently incubated with increasing concentrations of 3PO (1, 3, 10, or 33 μM) or vehicle (V), and viable cells were analyzed after 48 hours. The bars represent the mean±STD of triplicate values from a representative experiment.
All cell lines were plated at 1×10^5 cells/well in the appropriate medium. For suspension cells, increasing concentrations of 1 were added immediately to the medium, whereas, compound 1 treatment was initiated the following day for adherent cell lines. For dose-dependent studies, compound 1 was added in increasing concentrations for 36 hours. For time-dependent studies, 10 μM of compound 1 was added at time 0, 4, 8, 16, 24, or 36 hours. […]
as §2

[4] = system: HL-60 leukemia cell xenografts; assay: HL-60 leukemia xenografts in Balb/c nude mice; format: in vivo; settings: 0.07 mg/g IP, two daily injections followed by seven days off
Procedure: FIG. 7C is a graph showing the effects of 3PO treatment on the growth of established HL-60 acute promyelocytic leukemia xenografts in Balb/c athymic mice. Tumors were measured daily using blunt end Vernier calipers, and mice with established tumors (130-190 mg) were blindly randomized into either a DMSO control group (•, n=11) or a 3PO treatment group (∘, n=12). Experimental mice were weighed and given intraperitoneal (i.p.) injections of either 50 μL DMSO or 0.07 mg/g 3PO in 50 μL DMSO according to a cyclical dosing regimen of two sequential daily injections of DMSO or 3PO followed by seven day rest period for the duration of the study (14 days). Arrows (↓) represent control or 3PO administrations. Statistical difference was obtained after initial injection with a p-value<0.0001.
Exponentially growing MDA-MB231 and HL-60 cells were collected in appropriate medium, washed twice and resuspended in PBS at a concentration of 20×10^7 cells/mL. […] Body weight and tumor growth were monitored daily throughout the study. Tumor masses were determined by measurement with Vernier calipers using the formula: mass (mg)=[width (mm^2)×length (mm)]/2. […]
The first tumor model tested consisted of mouse Lewis Lung Carcinoma xenografts grown in C57/Blk6 mice. For this study, mice were given IP injections of either DMSO or the calculated dose of 1 once daily for the duration of the study (14 days). […]

O=C(/C=C/c1cccnc1)c1ccncc1 [Compound 1, 3-(3-pyridinyl)-1-(4-pyridinyl)-2-propen-1-one]
IC50 [1]: 4.7 µM | IC50 [2]: 24 µM | IC50 [3]: 8.9 µM | inhibition of tumor growth compared to DMSO controls [4]: > 74%
